Test results taken from patent US20150071967A1, “Tolerisation-Inducing Composition” (University of Bristol, priority 2012, published 2015).

How the values were obtained:
[1] = tested on: β-catenin; conditions: cited from earlier work
[2] = tested on: Th1 cells; test: IL-10 mRNA by qPCR in Th1 CD4+ cells; format: cell-based, mouse; conditions: IL-10 relative to HPRT1
Protocol: F. Splenocytes from a naive Tg4 mouse were cultured in the presence of peptide MBP Ac1-9 (10 μg/ml) and IL-12 with IL-2 added on day 3 of culture to polarise CD4+ cells towards a Th1 phenotype. On day 7 of culture, Th1 cells were restimulated with fresh irradiated APCs from a B10_PL mouse in the presence of DMSO (1:1000; Control), CHIR99021 (2 μM), SB216763 (5 μM) or SB627772 (10 µM) as well as peptide MBP Ac1-9 (10 μg/ml). IL-2 was added on day 3 of culture. On day 7 of restimulation live CD4^+ cells were selected and stimulated with anti CD3/CD28 antibodies for 16 hrs. RNA was extracted and IL-10 mRNA quantified by qPCR. IL-10 quantities are shown relative to HPRT1 control.
(§1) In a separate experiment, CD4+ cells from Tg4 mice which express TCR specific for the peptide Ac[1-9] of MBP were polarised to a Th1 phenotype and then cultured in the presence of GSK3 inhibitors. Three structurally distinct inhibitors, CHIR99021, SB216763 and SB627772 were used to minimise effects of off-target inhibition.

[3] = tested on: β-catenin; test: beta-catenin Western blot in Th1 CD4+ cells; format: cell-based, mouse; conditions: for β-catenin accumulation (Western blot): CD4+ cells, 2 μM CHIR99021, 5 μM SB216763, 10 μM SB627772; for β-catenin levels (Western blot): Th1 cells restimulated with APCs and peptide, indicated concentrations, day 7
Protocol: G. Splenocytes from a naive Tg4 mouse were cultured in the presence of peptide MBP Ac1-9 (10 μg/ml) and IL-12 with IL-2 added on day 3 to polarise cells to a Th1 phenotype. On day 7 cells were restimulated with fresh irradiated APCs from a B10_PL mouse, peptide Ac1-9 of MBP (10 μg/ml) and the indicated concentrations of CHIR99021, SB216763 or SB627772. On day 7 of restimulation, CD4^+ cells were lysed in RIPA buffer, subjected to Western blotting and probed with beta catenin antibody. The membrane was stripped and reprobed for GAPDH as a loading control.
Splenocytes from a naive Tg4 mouse were cultured in the presence of peptide MBP Ac1-9 (10 μg/ml) and IL12 with IL2 added on day 3 to polarise cells to a Th1 phenotype. On day 7 cells were restimulated with fresh irradiated APCs, peptide Ac1-9 of MBP (10 μg/ml) and the indicated concentrations of SB216763 or CHIR99021. On day 7 of restimulation, cells were lysed in RIPA buffer, subjected to Western blotting and probed with beta catenin antibody. The membrane was stripped and reprobed for GAPDH as a loading control. GSK-3 consititutively phosphorylates the β-catenin protein, leading to its degradation.

[4] = tested on: Th1 cells; test: IL-10 protein in Th1-polarised CD4+ cells restimulated with GSK-3 inhibitors (ICCS, bead immunoassay); format: cell-based, mouse; conditions: for IL-10 protein: Th1 CD4+ cells restimulated with APCs and peptide or with anti-CD3/anti-CD28 coated beads; for Intracellular IL-10 levels: Th1 cells restimulated with anti CD3/anti CD28 Dynabeads, 2 μM CHIR99021 or 3 μM SB216763, ICCS day 7
Protocol: A. Splenocytes from a naive Tg4 mouse were cultured in the presence of peptide MBP Ac1-9 (10 μg/ml) and IL-12 with IL-2 added on day 3 of culture to polarise CD4+ cells towards a Th1 phenotype. On day 7 of culture, Th1 cells were restimulated with fresh irradiated APCs from a B10_PL mouse in the presence of DMSO (1:1000; Control), CHIR99021 (2 μM), SB216763 (5 μM) or SB627772 (10 μM) as well as peptide MBP Ac1-9 (10 μg/ml). IL-2 was added on day 3 of culture and intracellular cytokine staining for IFNγ and IL-10 carried out on day 7 of restimulation after PMA and lonomycin stimulation. Data are plots gated on live CD4^+ cells and are representative of 5 independent experiments.
C. Splenocytes from a naive Tg4 mouse were cultured in the presence of peptide MBP Ac1-9 (10 μg/ml) and IL-12 with IL-2 added on day 3 of culture to polarise CD4+ cells towards a Th1 phenotype. On day 7 of culture, Th1 CD4+ cells were isolated and restimulated with anti-CD3/anti-CD28 coated beads in the presence of IL-2 and DMSO (1:1000; Control), CHIR99021 (2 μM), SB216763 (5 μM) or SB627772 (10 μM). Intracellular cytokine staining for IFNγ and IL-10 was carried out on day 7 of restimulation after PMA and lonomycin stimulation. Data are plots gated on live CD4^+ cells and are representative of 4 independent experiments.
E. Tissue culture supernatants were taken on day 3 of restimulation and analysed for IL-10 by fluorescent bead immunoassay. Data are mean+/−SEM and are representative of 3 independent experiments.
Splenocytes from a naive Tg4 mouse were cultured in the presence of peptide MBP Ac1-9 (10 μg/ml) and IL12 with IL2 added on day 3 to polarise cells to a Th1 phenotype. On day 7, cells were restimulated with anti CD3/anti CD28 Dynabeads and 2 μM CHIR99021, 3 μM SB216763 or 0.02% DMSO (vehicle control). Cells were analysed by ICCS on Day 7 after stimulation. Intracellular IL-10 levels were increased following treatment with either GSK-3 inhibitor (CHIR99021 or SB216763).
as §1

[5] = tested on: naive CD4+ T cells; test: IL-10 in naive CD4+ T cells cultured with GSK-3 inhibitors (ICCS, bead immunoassay); format: cell-based, mouse; conditions: for IL-10 production: naive CD4+CD62L+ T-cells from Tg4 spleens, cultured in the presence of GSK3 inhibitors; for Intracellular IL-10 levels: naive Tg4 CD4+ cells, anti CD3/anti CD28 Dynabeads, 2 μM CHIR99021 or 3 μM SB216763, ICCS day 7
Protocol: A. CD4^+/CD62L^+ T cells were isolated from Tg4 splenocytes and cultured with anti-CD3/anti-CD28 coated beads in the presence of IL-2 and DMSO (1:1000; Control), CHIR99021 (2 μM), SB216763 (5 μM) or SB627772 (10 μM). Intracellular cytokine staining for […] and IL-10 was carried out on day 7 of restimulation after PMA and lonomycin stimulation. Data are plots gated on live CD4^+ cells and are representative of 3 independent experiments.
B. Tissue culture supernatants were taken on day 3 of restimulation and analysed for IL-10 by fluorescent bead immunoassay. Data are mean+/−SEM of 3 independent experiments.
CD4+ cells purified from a naive Tg4 spleen were cultured in the presence of 2 μM CHIR99021, 3 μM SB216763 or 0.02% DMSO (vehicle control) with anti CD3/anti CD28 Dynabeads. Cells were analysed by ICCS on Day 7 after stimulation.
as §1

[6] = tested on: APC / Th1 CD4+ cells; test: IL-10 with APCs from WT or IL-10 knockout mice (ICCS, ELISA); format: cell-based, mouse; conditions: 2 μM CHIR99021, APCs from WT or IL10 knockout mice, ICCS and day 3 ELISA
Protocol: A. Splenocytes from a naive Tg4 mouse were cultured in the presence of peptide MBP Ac1-9 (10 μg/ml) and IL-12 with IL-2 added on day 3 of culture to polarise CD4+ cells towards a Th1 phenotype. On day 7 of culture, Th1 cells were restimulated with fresh irradiated APCs from either a B10_PL or B10_PL IL10^−/− mouse in the presence of DMSO (1:1000; Control) or CHIR99021 (2 μM). IL-2 was added on day 3 of culture and intracellular cytokine staining for […] and IL-10 carried out on day 7 of restimulation after PMA and lonomycin stimulation. Data are plots gated on live CD4^+ cells and are representative of 3 independent experiments. B. Tissue culture supernatants were taken on day 3 of restimulation and analysed for IL-10 by ELISA. Data are mean+/−SEM and are representative of 3 independent experiments. Splenocytes from a naive Tg4 mouse were cultured in the presence of either: (a) peptide MBP Ac1-9 (10 μg/ml) and IL12 with IL2 added on day 3 to polarise cells to a Th1 phenotype; or (b) IL4 and anti IFNγ with IL2 added on day 3 to polarise cells to a Th2 phenotype. On day 7 CD4+ cells were restimulated with fresh irradiated APCs from either WT or IL10 knockout mice, 2 μM CHIR99021 or 0.02% DMSO (vehicle control) and peptide […] of MBP (10 μg/ml). Supernatants were taken in triplicate on day 3 and analysed for IL-10 by ELISA (FIG. 3 (E)). […]

SMILES: O=C1NC(=O)C(c2ccccc2[N+](=O)[O-])=C1Nc1ccc(O)c(Cl)c1 [SB415286]
- Level of β-catenin [1]: elevate the level of 13-catenin

SMILES: Cn1cc(C2=C(c3ccc(Cl)cc3Cl)C(=O)NC2=O)c2ccccc21 [SB216763]
- IL-10 mRNA (qPCR) [2]: upregulation
- β-catenin accumulation (Western blot) [3]: no accumulation of β-catenin
- β-catenin levels (Western blot) [3]: does not appear to cause a significant effect on β-catenin levels
- IL-10 protein [4]: significantly increased
- Intracellular IL-10 levels [4]: increased
- IL-10 production [5]: did not show any change
- Intracellular IL-10 levels [5]: not significantly affected

SMILES: Cc1c[nH]c(-c2cnc(NCCNc3ccc(C#N)cn3)nc2-c2ccc(Cl)cc2Cl)n1 [CHIR99021]
- IL-10 mRNA (qPCR) [2]: upregulation
- IL-10 in / produced by the APC [6]: Neither the intracellular level of IL-10 in the APC nor the production of IL-10 by the APC was enhanced
- β-catenin accumulation (Western blot) [3]: no accumulation of β-catenin
- β-catenin levels (Western blot) [3]: degradation of β-catenin appears to be inhibited, leading to build up of the β-catenin protein
- IL-10 protein [4]: significantly increased
- Intracellular IL-10 levels [4]: increased
- IL-10 production [5]: did not show any change
- Intracellular IL-10 levels [5]: not significantly affected
